pIC50, pKd: −log10 of the molar value. Values after ≈ are worked out from the molar mass of the structure shown.
Experiments:
FAP [1] = target: FAP (Homo sapiens (Human), UniProt Q12884); test: hFAP inhibition assay; type: biochemical; conditions: Ala-Pro-AMC 20 μM, n = 1 or geometric mean n = 2-3
Procedure, shortened: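 Compounds (10-point, 3-fold dilutions from 50 μM top) were preincubated 15 min at rt in the dark with 0.48 nM hFAP in pH 7.4 Tris/NaCl/Chaps buffer. Reaction was started with substrate (40 μM solution) and ran 30 min at rt. Read by fluorescence (340/460 nm); IC50 from one-site fit.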

[2] = Metabolic stability in human liver microsomes (HLM); conditions: human, HLM CLint, n = 1 or average of n = 2-3
Experimental: Metabolic stability in HLM was measured as described in J Comput Aided Mol Des 2015, 29, 795.

[3] = target: human Fibroblast activation protein alpha (hFAP) (Homo sapiens (Human), UniProt Q12884); test: hFAP inhibition assay (tight binders); type: biochemical; conditions: Ala-Pro-AMC 20 μM, n = 1 or geometric mean n = 2-6; further: hFAP 2.4 pM
Experimental: The plates were read on a PHERAstar® reader with excitation 340 nm and emission 460 nm. Data were analyzed in Genedata Screener®. IC50 values were determined by plotting % inhibition versus log compound concentration and using a one site dose response model.

Kinetic solubility = conditions: kinetic from dmso stock, Solubility, kinetic solubility; n = 1 or average of n = 2-3
Experimental: Kinetic solubility was measured as described in Comput Aided Mol Des 2015, 29, 795.

Caco-2 cell permeability = conditions: human
Experimental: Caco-2 cell permeability was measured as described in Mol Pharm 2017, 14, 1601.

[4] = target: Prolyl endopeptidase, Prolyl Oligopeptidase (hPREP) (Homo sapiens (Human), UniProt P48147); test: hPrep inhibition assay; type: biochemical; conditions: hPREP 0.6 nM, Z-Gly-Pro-amino-methylcoumarin 50 μM; read-out: PREP IC50
Procedure, shortened: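 Fluorogenic read-out (340 nm excitation, 460 nm emission) after 20 min at rt, using 50 μM final Z-Gly-Pro-aminomethylcoumarin and 0.6 nM final enzyme, following 15 min compound preincubation. Buffer pH 7.5 with glutathione and Triton X-100. IC50 via one-site model on % inhibition vs log concentration.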

[5] = Metabolic stability in rat hepatocytes (rHep); conditions: n = 1 or geometric mean of n = 2-3
hFAP (M39-A757) = hFAP (M39-A757) (Homo sapiens (Human), UniProt Q12884); test: hFAP binding assay (surface plasmon resonance); conditions: SPR, 20° C.; for hFAP Binding assay k(off) / hFAP Binding assay k(on): single cycle kinetics; for pKd: n = 1 or geometric mean n = 2-4
FAP [6] = target: FAP (Mus musculus (Mouse), UniProt P97321); test: FAP plasma inhibition assay, mouse plasma; type: biochemical; conditions: mouse plasma diluted 1:67, Ala-Pro-AMC 75 μM
Experimental: This assay was adapted from the method described in Example 237 for detection of FAP target engagement enzyme activity in plasma. Plasma (anticoagulant K2EDTA) was used as the enzyme source: Human plasma (Pooled from AZ Biobank), Mouse plasma (AZ AST Biobank), and Cynomolgus plasma (BioIVT, #NHP00PLK2FNN, lot CYN222895). 384-Well black fluotrack PS plates (Greiner 781076) were used. 20 μL diluted plasma (Cynomolgus and Human plasma dilution 1:40, Mouse plasma dilution 1:67) in buffer (PBS, 0.1% BSA) was added to 0.6 μL compounds (in DMSO). Compounds were tested using 10 CR, 3 fold dilution series from 500 nM FAC. Two replicates for each assay point were run on the same plate. A fluorescence blank read was taken before substrate addition. […] Plates were incubated for 40 min at rt in the dark. […] IC50 values were determined by plotting % inhibition versus log compound concentration.

Sequence of Prolyl endopeptidase, Prolyl Oligopeptidase (hPREP) (P48147 whole entry): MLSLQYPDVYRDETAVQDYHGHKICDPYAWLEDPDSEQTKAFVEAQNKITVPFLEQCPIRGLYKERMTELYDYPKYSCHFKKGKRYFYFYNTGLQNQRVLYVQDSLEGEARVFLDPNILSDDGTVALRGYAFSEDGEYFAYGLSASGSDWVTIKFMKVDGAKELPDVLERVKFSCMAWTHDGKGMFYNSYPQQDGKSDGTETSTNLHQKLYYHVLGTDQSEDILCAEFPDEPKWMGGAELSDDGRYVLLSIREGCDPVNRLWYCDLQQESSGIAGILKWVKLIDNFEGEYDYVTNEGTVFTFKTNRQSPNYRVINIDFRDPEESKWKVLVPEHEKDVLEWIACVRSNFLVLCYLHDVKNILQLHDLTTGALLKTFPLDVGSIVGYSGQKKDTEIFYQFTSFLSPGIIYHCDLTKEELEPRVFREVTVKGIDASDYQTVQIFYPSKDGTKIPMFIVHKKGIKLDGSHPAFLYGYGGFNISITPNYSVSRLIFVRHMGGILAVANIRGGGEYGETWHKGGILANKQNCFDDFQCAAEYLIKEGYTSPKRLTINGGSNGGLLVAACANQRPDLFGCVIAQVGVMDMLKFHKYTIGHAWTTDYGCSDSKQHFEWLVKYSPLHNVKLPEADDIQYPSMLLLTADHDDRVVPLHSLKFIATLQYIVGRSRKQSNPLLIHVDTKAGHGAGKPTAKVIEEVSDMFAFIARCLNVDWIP
Sequence of FAP (Homo sapiens (Human), UniProt Q12884) (Q12884 38-760): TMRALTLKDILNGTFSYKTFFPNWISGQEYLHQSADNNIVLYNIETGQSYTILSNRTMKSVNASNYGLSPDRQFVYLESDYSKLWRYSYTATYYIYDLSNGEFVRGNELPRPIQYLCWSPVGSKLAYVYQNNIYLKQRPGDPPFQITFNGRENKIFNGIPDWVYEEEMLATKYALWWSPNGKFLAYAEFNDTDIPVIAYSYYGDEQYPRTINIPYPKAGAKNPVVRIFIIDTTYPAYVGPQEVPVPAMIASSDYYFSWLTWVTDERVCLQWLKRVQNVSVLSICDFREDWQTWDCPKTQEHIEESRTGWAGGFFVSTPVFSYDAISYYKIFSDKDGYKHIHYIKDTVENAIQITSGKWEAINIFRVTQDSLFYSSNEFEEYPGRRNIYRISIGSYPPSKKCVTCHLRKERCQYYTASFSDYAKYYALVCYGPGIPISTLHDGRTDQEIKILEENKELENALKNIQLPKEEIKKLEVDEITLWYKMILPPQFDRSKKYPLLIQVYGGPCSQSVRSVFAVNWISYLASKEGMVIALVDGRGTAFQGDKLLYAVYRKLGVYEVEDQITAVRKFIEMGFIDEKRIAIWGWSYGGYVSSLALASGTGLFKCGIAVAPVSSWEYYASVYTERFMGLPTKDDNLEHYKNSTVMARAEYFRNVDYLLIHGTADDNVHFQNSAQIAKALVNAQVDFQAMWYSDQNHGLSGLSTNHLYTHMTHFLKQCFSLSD
Sequence of human Fibroblast activation protein alpha (hFAP) (Q12884 38-760): as above
Sequence of hFAP (M39-A757) (Q12884 39-757): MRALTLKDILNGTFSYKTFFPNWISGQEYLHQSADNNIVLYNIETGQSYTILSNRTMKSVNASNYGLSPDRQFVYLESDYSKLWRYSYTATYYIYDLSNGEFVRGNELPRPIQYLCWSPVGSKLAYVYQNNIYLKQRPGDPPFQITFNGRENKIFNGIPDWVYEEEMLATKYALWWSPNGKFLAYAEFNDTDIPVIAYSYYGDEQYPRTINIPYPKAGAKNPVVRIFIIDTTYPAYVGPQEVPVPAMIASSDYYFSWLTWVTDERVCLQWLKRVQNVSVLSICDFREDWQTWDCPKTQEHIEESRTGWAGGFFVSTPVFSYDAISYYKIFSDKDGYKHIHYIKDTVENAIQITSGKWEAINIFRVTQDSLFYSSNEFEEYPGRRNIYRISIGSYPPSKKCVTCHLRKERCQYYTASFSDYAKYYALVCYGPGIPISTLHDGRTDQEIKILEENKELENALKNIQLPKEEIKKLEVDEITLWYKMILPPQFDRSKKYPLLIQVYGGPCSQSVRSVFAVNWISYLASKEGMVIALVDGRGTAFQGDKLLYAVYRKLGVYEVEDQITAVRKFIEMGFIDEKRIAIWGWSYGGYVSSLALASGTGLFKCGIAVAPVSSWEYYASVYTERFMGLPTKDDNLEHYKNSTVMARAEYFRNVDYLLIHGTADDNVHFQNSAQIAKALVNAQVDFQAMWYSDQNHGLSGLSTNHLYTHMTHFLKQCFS
Sequence of FAP (Mus musculus (Mouse), UniProt P97321) (P97321 24-761): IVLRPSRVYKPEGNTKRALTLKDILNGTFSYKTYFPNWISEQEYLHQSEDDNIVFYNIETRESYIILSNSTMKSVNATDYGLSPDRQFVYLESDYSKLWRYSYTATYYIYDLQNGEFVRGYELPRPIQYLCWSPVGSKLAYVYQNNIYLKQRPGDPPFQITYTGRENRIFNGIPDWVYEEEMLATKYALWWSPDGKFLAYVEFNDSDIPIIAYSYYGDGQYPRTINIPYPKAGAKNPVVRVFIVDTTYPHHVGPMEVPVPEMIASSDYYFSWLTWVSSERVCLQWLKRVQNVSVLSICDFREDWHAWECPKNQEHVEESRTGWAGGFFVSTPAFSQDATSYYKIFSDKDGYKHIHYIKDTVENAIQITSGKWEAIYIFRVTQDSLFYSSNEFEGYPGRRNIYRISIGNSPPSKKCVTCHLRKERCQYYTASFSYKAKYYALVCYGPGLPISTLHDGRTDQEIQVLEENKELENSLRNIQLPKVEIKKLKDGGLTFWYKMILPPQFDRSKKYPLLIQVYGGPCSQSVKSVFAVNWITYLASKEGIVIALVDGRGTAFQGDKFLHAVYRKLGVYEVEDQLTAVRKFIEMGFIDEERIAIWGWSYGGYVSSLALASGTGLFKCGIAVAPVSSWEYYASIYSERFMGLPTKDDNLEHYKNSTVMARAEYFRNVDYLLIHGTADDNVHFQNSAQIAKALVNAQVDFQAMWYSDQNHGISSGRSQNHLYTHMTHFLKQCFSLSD

| Compound | pIC50 (FAP [1]; hFAP 0.24 nM) | microsomal CLint [2] [µL/min/mg] | pIC50 [3] | solubility (Kinetic solubility) [µM] | Papp (Caco-2 cell permeability) [×10⁻⁶ cm/s] | pIC50 [4] | rHep CLint [5] [μL/min/1E6] | hFAP Binding assay k(off) (hFAP (M39-A757)) [s⁻¹] | hFAP Binding assay k(on) (hFAP (M39-A757)) [M⁻¹ s⁻¹] | pKd (hFAP (M39-A757)) | pIC50 (FAP [6]) | pIC50 (FAP [1]; hFAP […]) | Papp A→B (Caco-2 cell permeability) [×10⁻⁶ cm/s] | Papp B→A (Caco-2 cell permeability) [×10⁻⁶ cm/s] | efflux ratio (Caco-2 cell permeability) |
| --- | --- | --- | --- | --- | --- | --- | --- | --- | --- | --- | --- | --- | --- | --- | --- |
| CC1(F)CN(c2ccc3nccc(C(=O)NCC(=O)N4CSC[C@H]4C#N)c3c2)C1 [Example 24, (R)—N-(2-(4-Cyanothiazolidin-3-yl)-2-oxoethyl)-6-(3-fluoro-3-methyl-azetidin-1-yl)quinoline-4-carboxamide] | – | – | – | – | – | 6.29 | – | 0.00048 | 25000000 | – | 9.40 | – | – | – | – |
| CC1(C)CCN(c2ccc3nccc(C(=O)NCC(=O)N4CSC[C@H]4C#N)c3c2)CC1 [Example 33, (R)—N-(2-(4-Cyanothiazolidin-3-yl)-2-oxoethyl)-6-(4,4-dimethylpiperidin-1-yl)quinoline-4-carboxamide] | – | 92 | 9.57 | 85 (≈ 37.2 µg/mL) | – | 6.66 | 44 | 0.000052 | 1100000 | 10.23 | – | 9.47 | 7.5 | 19 | 2.5 |
| C[C@@H]1OCCN(c2ccc3nccc(C(=O)NCC(=O)N4CSC[C@H]4C#N)c3c2)[C@H]1C [Example 82, N-(2-((R)-4-Cyanothiazolidin-3-yl)-2-oxoethyl)-6-((2S,3S)-2,3-dimethyl-morpholino)quinoline-4-carboxamide] | – | – | – | – | – | 6.03 | – | 0.000071 | 1400000 | – | 9.40 | – | – | – | – |
| CC1(C)CCN(c2ccc3nccc(C(=O)NCC(=O)N4CSC[C@H]4C#N)c3c2)C(=O)O1 [Example 112, (R)—N-(2-(4-Cyanothiazolidin-3-yl)-2-oxoethyl)-6-(6,6-dimethyl-2-oxo-1,3-oxazinan-3-yl)quinoline-4-carboxamide] | – | – | – | – | – | 5.44 | – | 0.00014 | 440000 | – | 9.10 | – | – | – | – |
| N#C[C@@H]1CSCN1C(=O)CNC(=O)c1ccnc2ccc(-c3cnn(C4CCOCC4)c3)cc12 [Example 173, (R)—N-(2-(4-Cyanothiazolidin-3-yl)-2-oxoethyl)-6-(1-(tetrahydro-2H-pyran-4-yl)-1H-pyrazol-4-yl)quinoline-4-carboxamide] | – | – | – | – | – | 6.03 | – | 0.000054 | 110000 | – | 9.70 | – | – | – | – |
| Cc1ccc(-c2ccc3nccc(C(=O)NCC(=O)N4CSC[C@H]4C#N)c3c2)cn1 [Example 177, (R)—N-(2-(4-Cyanothiazolidin-3-yl)-2-oxoethyl)-6-(6-methylpyridin-3-yl)-quinoline-4-carboxamide] | – | 13 | 9.96 | 40 (≈ 16.7 µg/mL) | – | 6.44 | 7.4 | 0.000058 | 100000 | 9.25 | – | 9.54 | 1.3 | 22 | 17 |
| N#C[C@@H]1CSCN1C(=O)CNC(=O)c1ccnc2ccc(-c3ccn[nH]3)cc12 [Example 196, (R)—N-(2-(4-Cyanothiazolidin-3-yl)-2-oxoethyl)-6-(1H-pyrazol-5-yl)-quinoline-4-carboxamide] | – | – | – | – | – | 7.08 | – | 0.00026 | 3200000 | – | 9.70 | – | – | – | – |
| Cc1nc(C)c(-c2ccc3nccc(C(=O)NCC(=O)N4CSC[C@H]4C#N)c3c2)o1 [Example 215, (R)—N-(2-(4-Cyanothiazolidin-3-yl)-2-oxoethyl)-6-(2,4-dimethyloxazol-5-yl)quinoline-4-carboxamide] | – | 8 | 9.92 | 350 (≈ 148 µg/mL) | – | 6.60 | 3.9 | 0.00017 | 1800000 | 10.02 | – | 9.39 | 0.48 | 29 | 59 |
| Cc1noc(C)c1-c1ccc2nccc(C(=O)NCC(=O)N3CSC[C@H]3C#N)c2c1 [Example 216, (R)—N-(2-(4-Cyanothiazolidin-3-yl)-2-oxoethyl)-6-(3,5-dimethylisoxazol-4-yl)quinoline-4-carboxamide] | – | 58 | 8.77 | 710 (≈ 299 µg/mL) | – | 6.72 | 17 | 0.0009 | 5200000 | 9.57 | – | 8.62 | 0.62 | 40 | 65 |

Now from value to compound:

| pIC50 (FAP [1]; hFAP 0.24 nM) | microsomal CLint [2] [µL/min/mg] | pIC50 [3] | solubility (Kinetic solubility) [µM] | Papp (Caco-2 cell permeability) [×10⁻⁶ cm/s] | pIC50 [4] | rHep CLint [5] [μL/min/1E6] | hFAP Binding assay k(off) (hFAP (M39-A757)) [s⁻¹] | hFAP Binding assay k(on) (hFAP (M39-A757)) [M⁻¹ s⁻¹] | pKd (hFAP (M39-A757)) | pIC50 (FAP [6]) | pIC50 (FAP [1]; hFAP […]) | Papp A→B (Caco-2 cell permeability) [×10⁻⁶ cm/s] | Papp B→A (Caco-2 cell permeability) [×10⁻⁶ cm/s] | efflux ratio (Caco-2 cell permeability) | Compound |
| --- | --- | --- | --- | --- | --- | --- | --- | --- | --- | --- | --- | --- | --- | --- | --- |
| 9.48 | 30 | 9.80 | 620 | 16 | 6.19 | 12 | 0.000064 | 680000 | 10.03 | – | – | – | – | – | CO[C@H]1CCCN(c2ccc3nccc(C(=O)NCC(=O)N4CSC[C@H]4C#N)c3c2)C1 (mixture of isomers) [Example 41, N-(2-((R)-4-Cyanothiazolidin-3-yl)-2-oxoethyl)-6-((RS)-3-methoxypiperidin-1-yl)quinoline-4-carboxamide] |
| – | – | – | – | – | – | – | – | – | – | 9.22 | – | – | – | – | Cc1cc(N2CCOCC2)cc2c(C(=O)NCC(=O)N3CSC[C@H]3C#N)ccnc12 [Example 9] |
| – | 12 | 10.26 | 38 (≈ 16 µg/mL) | – | 6.66 | 14 | 0.00028 | 3000000 | 10.03 | – | 9.62 | 0.65 | 39 | 59 | N#C[C@@H]1CSCN1C(=O)CNC(=O)c1ccnc2ccc(-c3ccnc(F)c3)cc12 [Example 124, (R)—N-(2-(4-Cyanothiazolidin-3-yl)-2-oxoethyl)-6-(2-fluoropyridin-4-yl)quinoline-4-carboxamide] |
| – | 27 | 9.62 | 960 (≈ 401 µg/mL) | – | 6.96 | 11 | 0.00066 | 5400000 | 9.82 | – | 9.35 | 0.57 | 26 | 45 | Cc1ncccc1-c1ccc2nccc(C(=O)NCC(=O)N3CSC[C@H]3C#N)c2c1 [Example 128, (R)—N-(2-(4-Cyanothiazolidin-3-yl)-2-oxoethyl)-6-(2-methylpyridin-3-yl)-quinoline-4-carboxamide] |
| – | – | – | – | – | 6.27 | – | 0.000076 | 2400000 | – | 9.22 | – | – | – | – | Cc1nn(C2CCOCC2)c(C)c1-c1ccc2nccc(C(=O)NCC(=O)N3CSC[C@H]3C#N)c2c1 [Example 172, (R)—N-(2-(4-Cyanothiazolidin-3-yl)-2-oxoethyl)-6-(3,5-dimethyl-1-(tetrahydro-2H-pyran-4-yl)-1H-pyrazol-4-yl)quinoline-4-carboxamide] |
| – | – | – | – | – | 6.12 | – | 0.00012 | 1400000 | – | 9.40 | – | – | – | – | N#C[C@@H]1CSCN1C(=O)CNC(=O)c1ccnc2ccc(-c3cnc4n3CCCC4)cc12 [Example 175, (R)—N-(2-(4-Cyanothiazolidin-3-yl)-2-oxoethyl)-6-(5,6,7,8-tetrahydroimidazo[1,2-a]pyridin-3-yl)quinoline-4-carboxamide] |

Source: patent US20230312550A1, “N-(2-(4-CYANOTHIAZOLIDIN-3-YL)-2-OXOETHYL)-QUINOLINE-4-CARBOXAMIDES” (AstraZeneca AB, priority 2020, published 2023)
